Laboratory results from patent US9062078B2, “Substituted 7-azabicyles and their use as orexin receptor modulators” (priority 2013, dated 2015).
Like-named read-outs stand apart in the source and are kept apart here.

Assays:
rat orexin 1 receptor = rat orexin 1 receptor (Rattus norvegicus, UniProt P56718); experiment: Rat orexin 1 receptor radioligand binding (competitive, [3H]-SB674042, HEK293 cell preparations)
human orexin 1 receptor = human orexin 1 receptor (Homo sapiens (Human), UniProt O43613); experiment: Human orexin 1 receptor radioligand binding (competitive, [3H]-SB674042, CHO cell preparations)
human orexin 2 receptor = human orexin 2 receptor (Homo sapiens (Human), UniProt O43614); experiment: Human orexin 2 receptor radioligand binding (competitive, [3H]-EMPA, HEK293 cell preparations)
[1] = human orexin 2 receptor, [3H]-EMPA competition binding, read-out: hOX2 Ki (nm)
[2] = rat orexin 1 receptor, [3H]-SB674042 competition binding, read-out: rOX1 Ki (nm)
[3] = human orexin 1 receptor, [3H]-SB674042 competition binding, read-out: hOX1 Ki (nm)

Chain of human orexin 2 receptor (O43614 whole entry): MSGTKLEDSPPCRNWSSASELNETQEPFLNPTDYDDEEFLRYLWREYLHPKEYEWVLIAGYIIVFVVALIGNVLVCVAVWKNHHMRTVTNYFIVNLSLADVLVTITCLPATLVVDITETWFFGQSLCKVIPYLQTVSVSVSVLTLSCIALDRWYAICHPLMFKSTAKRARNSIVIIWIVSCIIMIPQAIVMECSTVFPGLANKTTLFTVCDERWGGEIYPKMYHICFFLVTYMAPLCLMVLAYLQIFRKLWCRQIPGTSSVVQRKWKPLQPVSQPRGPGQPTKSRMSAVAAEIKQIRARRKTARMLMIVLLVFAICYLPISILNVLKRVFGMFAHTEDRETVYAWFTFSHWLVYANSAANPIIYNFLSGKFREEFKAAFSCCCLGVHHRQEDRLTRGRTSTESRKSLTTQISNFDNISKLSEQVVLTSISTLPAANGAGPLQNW
Chain of human orexin 1 receptor (O43613 whole entry): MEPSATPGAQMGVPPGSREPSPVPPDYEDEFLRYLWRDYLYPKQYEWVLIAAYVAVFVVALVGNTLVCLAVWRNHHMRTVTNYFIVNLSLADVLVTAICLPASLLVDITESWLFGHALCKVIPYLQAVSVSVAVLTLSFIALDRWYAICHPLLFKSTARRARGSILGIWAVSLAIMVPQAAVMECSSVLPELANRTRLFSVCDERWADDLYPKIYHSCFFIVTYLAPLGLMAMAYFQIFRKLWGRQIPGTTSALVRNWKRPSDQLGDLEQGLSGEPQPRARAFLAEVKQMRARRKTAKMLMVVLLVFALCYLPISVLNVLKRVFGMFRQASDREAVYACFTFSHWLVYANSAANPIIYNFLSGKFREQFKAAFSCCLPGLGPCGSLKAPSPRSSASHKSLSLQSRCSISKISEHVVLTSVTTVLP

Row | SMILES | Ki (human orexin 2 receptor; [1]) | Ki (rat orexin 1 receptor; read-out: rOX1 Ki (nm)) | Ki (human orexin 1 receptor; read-out: hOX1 Ki (nm)) | other results
1 | Cc1ccc(-c2ncccn2)c(C(=O)N2C3CCC2C(Nc2cnc4ccccc4n2)C3)n1 (racemic) [Example 208, (±)-(6-methyl-3-(pyrimidin-2-yl)pyridin-2-yl)(2-(quinoxalin-2-ylamino)-7-azabicyclo[2.2.1]heptan-7-yl)methanone] | 0.09 µM | – | – | Ki (rat orexin 1 receptor; rOX1 Ki (nm)): 0.026 µM; Ki (human orexin 1 receptor; hOX1 Ki (nm)): 0.03 µM
2 | O=C(c1ccccc1-n1nccn1)N1C2CCC1C(Nc1ccc(Cl)cn1)C2 (racemic) [Example 211, (±)-(2-(2H-1,2,3-triazol-2-yl)phenyl)(2-(((5-chloropyridin-2-yl)amino)-7-azabicyclo[2.2.1]heptan-7-yl)methanone] | 1.8 µM | – | – | Ki (rat orexin 1 receptor; rOX1 Ki (nm)): 0.11 µM; Ki (human orexin 1 receptor; hOX1 Ki (nm)): 0.055 µM
3 | O=C(c1ccccc1-n1nccn1)N1C2CCC1C(Nc1nc3cc(Cl)ccc3o1)C2 (racemic) [Example 216, (±)-(2-(2H-1,2,3-triazol-2-yl)phenyl)(2-((5-chlorobenzo[d]oxazol-2-yl)amino)-7-azabicyclo[2.2.1]heptan-7-yl)methanone] | 0.475 µM | – | – | Ki (rat orexin 1 receptor; rOX1 Ki (nm)): 0.099 µM; Ki (human orexin 1 receptor; hOX1 Ki (nm)): 0.071 µM
4 | Cc1ccc(-c2ncccn2)c(C(=O)N2C3CCC2C(Nc2ccc(Br)cn2)C3)n1 (racemic) [Example 217, (±)-(2-((5-bromopyridin-2-yl)amino)-7-azabicyclo[2.2.1]heptan-7-yl)(6-methyl-3-(pyrimidin-2-yl)pyridin-2-yl)methanone] | 0.77 µM | – | – | Ki (rat orexin 1 receptor; rOX1 Ki (nm)): 0.059 µM; Ki (human orexin 1 receptor; hOX1 Ki (nm)): 0.04 µM
5 | Cc1ccc(-c2ncccn2)c(C(=O)N2[C@@H]3CC[C@H]2[C@H](COc2ccccn2)C3)n1 (single isomer, unassigned) [Example 3A, (6-methyl-3-(pyrimidin-2-yl)pyridin-2-yl)((1S*,2R*,4R*)-2-((pyridin-2-yloxy)methyl)-7-azabicyclo[2.2.1]heptan-7-yl)methanone] | – | – | – | Ki (rat orexin 1 receptor; rOX1 Ki (nm)): 0.024 µM; Ki (human orexin 1 receptor; hOX1 Ki (nm)): 0.019 µM; Ki (human orexin 2 receptor; hOX2 Ki (nm)): 0.268 µM
6 | CCOc1ccc(C)nc1C(=O)N1C2CCC1C(Nc1cnc3ccccc3n1)C2 (single isomer, unassigned) [Example 207, (±)-(3-ethoxy-6-methylpyridin-2-yl)(2-(quinoxalin-2-ylamino)-7-azabicyclo[2.2.1]heptan-7-yl)methanone] | 0.064 µM | – | – | Ki (rat orexin 1 receptor; [2]): 0.12 µM; Ki (human orexin 1 receptor; [3]): 0.095 µM
7 | O=C(c1cccc(F)c1-c1ncccn1)N1[C@@H]2CC[C@H]1[C@H](Nc1cnc(C(F)(F)F)cn1)C2 [Example 238, (3-fluoro-2-(pyrimidin-2-yl)phenyl)((1S,2R,4R)-2-((5-(trifluoromethyl)pyrazin-2-yl)amino)-7-azabicyclo[2.2.1]heptan-7-yl)methanone] | – | 0.016 µM | 0.016 µM | Ki (human orexin 2 receptor; read-out: hOX2 Ki (nm)): 0.955 µM
8 | COc1ccc(C(=O)N2[C@@H]3CC[C@H]2[C@H](Nc2cnc(C(F)(F)F)cn2)C3)c(-n2nccn2)c1 [Example 241, (4-methoxy-2-(2H-1,2,3-triazol-2-yl)phenyl)((1S,2R,4R)-2-((5-(trifluoromethyl)pyrazin-2-yl)amino)-7-azabicyclo[2.2.1]heptan-7-yl)methanone] | 5.06 µM | – | – | Ki (rat orexin 1 receptor; [2]): 0.134 µM; Ki (human orexin 1 receptor; [3]): 0.159 µM
9 | COc1cccc(-n2nccn2)c1C(=O)N1[C@@H]2CC[C@H]1[C@H](Nc1cnc(C(F)(F)F)cn1)C2 [Example 242, (2-methoxy-6-(2H-1,2,3-triazol-2-yl)phenyl)((1S,2R,4R)-2-((5-(trifluoromethyl)pyrazin-2-yl)amino)-7-azabicyclo[2.2.1]heptan-7-yl)methanone] | 0.239 µM | 0.031 µM | 0.041 µM | –
10 | O=C(c1cc(F)ccc1-c1ncccn1)N1[C@@H]2CC[C@H]1[C@H](Nc1cnc(C(F)(F)F)cn1)C2 [Example 243, (5-fluoro-2-(pyrimidin-2-yl)phenyl)((1S,2R,4R)-2-((5-(trifluoromethyl)pyrazin-2-yl)amino)-7-azabicyclo[2.2.1]heptan-7-yl)methanone] | 0.723 µM | 0.034 µM | 0.045 µM | –
11 | Cc1nc(C(=O)N2[C@@H]3CC[C@H]2[C@H](Nc2cnc(C(F)(F)F)cn2)C3)c(-c2ccc(F)cc2)s1 [Example 244, (5-(4-fluorophenyl)-2-methylthiazol-4-yl)((1S,2R,4R)-2-((5-(trifluoromethyl)pyrazin-2-yl)amino)-7-azabicyclo[2.2.1]heptan-7-yl)methanone] | 0.235 µM | 0.074 µM | 0.046 µM | –
12 | Cc1cccc(C(=O)N2[C@@H]3CC[C@H]2[C@H](Nc2cnc(C(F)(F)F)cn2)C3)c1-n1nccn1 [Example 245, (3-methyl-2-(2H-1,2,3-triazol-2-yl)phenyl)((1S,2R,4R)-2-((5-(trifluoromethyl)pyrazin-2-yl)amino)-7-azabicyclo[2.2.1]heptan-7-yl)methanone] | 0.288 µM | 0.01 µM | 0.007 µM | –
13 | Cc1ccc(C(=O)N2[C@@H]3CC[C@H]2[C@H](Nc2cnc(C(F)(F)F)cn2)C3)c(-n2ccnn2)n1 [Example 248, (6-methyl-2-(1H-1,2,3-triazol-1-yl)pyridin-3-yl)((1S,2R,4R)-2-((5-(trifluoromethyl)pyrazin-2-yl)amino)-7-azabicyclo[2.2.1]heptan-7-yl)methanone] | > 10 µM | – | – | Ki (rat orexin 1 receptor; [2]): 0.153 µM; Ki (human orexin 1 receptor; [3]): 0.119 µM
14 | COc1ccc(C(=O)N2[C@@H]3CC[C@H]2[C@H](Nc2cnc(C(F)(F)F)cn2)C3)c(-c2ncccn2)c1 [Example 249, (4-methoxy-2-(pyrimidin-2-yl)phenyl)((1S,2R,4R)-2-((5-(trifluoromethyl)pyrazin-2-yl)amino)-7-azabicyclo[2.2.1]heptan-7-yl)methanone] | 5.6 µM | 0.057 µM | 0.054 µM | –
15 | O=C(c1ccc(OC(F)F)cc1-n1nccn1)N1[C@@H]2CC[C@H]1[C@H](Nc1cnc(C(F)(F)F)cn1)C2 [Example 253, (4-(difluoromethoxy)-2-(2H-1,2,3-triazol-2-yl)phenyl)((1S,2R,4R)-2-((5-(trifluoromethyl)pyrazin-2-yl)amino)-7-azabicyclo[2.2.1]heptan-7-yl)methanone] | 9.6 µM | – | – | Ki (rat orexin 1 receptor; [2]): 0.155 µM; Ki (human orexin 1 receptor; [3]): 0.152 µM
16 | COc1ccc(-n2nccn2)c(C(=O)N2[C@@H]3CC[C@H]2[C@H](Nc2cnc(C(F)(F)F)cn2)C3)c1 [Example 255, (5-methoxy-2-(2H-1,2,3-triazol-2-yl)phenyl)((1S,2R,4R)-2-((5-(trifluoromethyl)pyrazin-2-yl)amino)-7-azabicyclo[2.2.1]heptan-7-yl)methanone] | 0.265 µM | 0.032 µM | 0.029 µM | –
17 | O=C(c1c(F)cccc1-n1nccn1)N1[C@@H]2CC[C@H]1[C@H](Nc1cnc(C(F)(F)F)cn1)C2 [Example 258, (2-fluoro-6-(2H-1,2,3-triazol-2-yl)phenyl)((1S,2R,4R)-2-((5-(trifluoromethyl)pyrazin-2-yl)amino)-7-azabicyclo[2.2.1]heptan-7-yl)methanone] | 0.69 µM | 0.042 µM | 0.048 µM | –
18 | O=C(c1cccc(F)c1-c1ncco1)N1[C@@H]2CC[C@H]1[C@H](Nc1cnc(C(F)(F)F)cn1)C2 [Example 260, (3-fluoro-2-(oxazol-2-yl)phenyl)((1S,2R,4R)-2-((5-(trifluoromethyl)pyrazin-2-yl)amino)-7-azabicyclo[2.2.1]heptan-7-yl)methanone] | 0.519 µM | 0.014 µM | 0.01 µM | –
